Assay results published in PMC12048343, “Discovery of a small molecule secreted clusterin enhancer that improves memory in Alzheimer’s disease mice” (npj Drug Discovery, 2025).

Assays:
[1] = tested on: HEK 293 T cells; assay: Cytotoxicity, MultiTox-Fluor (nephrotoxicity); type: cell-based; conditions: up to 50 µM
Excerpt: Cell viability and toxicity were simultaneously assessed using the MultiTox-Fluor Multiplex Cytotoxicity Assay (Cat# PRG9200, Fisher Scientific) according to the manufacturer’s protocol.

[2] = tested on: 3xTg-AD murine model of AD; assay: Chronic 6-week oral study in 3xTg-AD mice (hippocampus biomarkers, proteomics); type: in vivo, mouse; conditions: oral 15 mg/kg BID, 6 weeks, vs vehicle
Procedure: Brain tissue was homogenized and diluted to a protein concentration of 50 ng/mL. The Mouse Clusterin ELISA Kit (Cat#ab199079, Abcam) was performed according to the manufacturer’s protocol.
Hippocampal tissue was sonicated in TPER buffer containing 1x protease and phosphatase inhibitors (Fisher catalog # 78429) on ice. Samples were centrifuged at 16000xg for 10 min at 4 degrees C. A BCA protein quantification assay was performed on each sample in duplicate. Aliquots of 40 uL were stored in the -80 freezer.
A sample of brain homogenate (8.8 mg/mL) was tested at 10 dilutions using the Tau AlphaLISA (Revvity Cat#AL271C) (32, 64, 128, 256, 512, 1024, 2048, 4096, 8192, 16384-fold) and, separately, the anti-tau phosphor AT8 and S396 (Fisher catalogs MN1020B and 44-752 G, respectively) antibodies (2, 4, 8, 16, 32, 64, 128, 256, 512, 1024-fold). AlphaLISA assays were by loading 2 µL of the anti-tau acceptor bead mixed with anti-tau or anti-ptau biotinylate antibodies in the 384-well plate, then 2 uL sample was loaded and incubated for 1 h at room temperature. AlphaScreen Streptavidin Donor beads (2 µL, Cat#6760002S, Perkin Elmer) were added, incubated for an additional 30 minutes in the dark, and the plate was read in an Envision plate reader.
Additional assays: The Aβ1-42 ELISA assay was performed on hippocampus brain homogenate according to the manufacturer’s protocol (Fisher KHB3441). Humanin in cell culture lysate was quantify by ELISA assay, according to the manufacturer’s protocol (MyBioSourc Cat# MBS7607247). SirT1 in cell culture lysate was quantify using AlphaLISA. Cell lysate (2 μL) was added to a 384-well proxy plate preloaded with 2 µL anti-SiRT1 antibody mixture (ABCAM catalog AB110304, biotinylated (10 nM) and ABCAM catalog AB104833, acceptor bead conjugated (50 µg/mL, Cat#6772001, Perkin Elmer)) was added and incubated at room temperature for 1 hour. AlphaScreen Streptavidin Donor beads (2 µL, Cat#6760002S, Perkin Elmer) were added, incubated for an additional 30 min in the dark, and the plate was read in an Envision plate reader.
All procedures were performed in accordance with protocols approved by the UCLA Institutional Animal Care and Use Committee (IACUC) and guidelines of the NIH. Mouse strains used were C57BL/6 J (Black 6, Jackson Laboratory; JAX stock #000564). All non-AD mice were 4 to 5 mo old at the time of the experiments. […]

SMILES: Cc1sc2c(c1C)C(c1ccc(Cl)cc1)=N[C@@H](CC(=O)OC1CC1)c1nnc(C)n1-2 [DDL-357]
- Ctox [1]: ≥ 50 µM
- reduction of tau phosphorylation at Ser396 (p-tau/total tau) ([2]; hippocampus): significant
- tau phosphorylation at Ser202/Thr205 (p-tau/total tau) ([2]; hippocampus): lower, but not significantly so
- Aβ1-42 levels in brain [2]: the differences were not significant
- sCLU levels in brain [2]: the differences were not significant
